The source made the active and inactive calls. The rule behind the calls is not given here.
Tests used:
Staphylococcus aureus [1] = experiment: (§1) In vivo antibacterial activity against methicillin-resistant Staphylococcus aureus KCCM 40511 ATCC 33593 infected in soft-skin tissue BALB/c mouse infection model assessed as downregulation of IL-6 levels in wound area treated as ointment administered twice at 6 and 12 hrs and measured after 24 hrs by ELISA assay; type: functional, organism-based
Staphylococcus aureus [2] = experiment: as §1, with “IL-1beta” for “IL-6”; type: functional, organism-based

Q: Which Activity (Staphylococcus aureus [1]) does the source give for C/C=C(\NC(=O)c1csc(-c2csc(-c3ccc4c(n3)-c3csc(n3)[C@H]([C@@H](C)O)NC(=O)c3csc(n3)[C@H](C(C)C)NC(=O)c3csc(n3)/C(=C/C)NC(=O)[C@H]([C@@H](C)O)NC(=O)c3csc-4n3)n2)n1)C(=O)NCCN1CCN(C(C)C)CC1 here?
A: Active

Q: And the Activity (Staphylococcus aureus [2])?
A: Active

From ChEMBL document CHEMBL5370604, “Identification of Micrococcin P2-Derivatives as Antibiotic Candidates against Two Gram-Positive Pathogens” (J Med Chem, 2023)
